Experimental data from patent US20220289657A1, “COMPOSITION FOR PREVENTING OR TREATING BACTERIAL INFECTIOUS DISEASE COMPRISING 4-GINGEROL DERIVATIVE COMPOUND AS ACTIVE INGREDIENT” (KOREA UNIVERSITY RESEARCH AND BUSINESS FOUNDATION, SEJONG …, priority 2019, published 2022).
Like-named read-outs stand apart in the source and are kept apart here. Marks after values point to notes of the source that are not given here.

What was measured:
RhlR = target: T1, RhlR (Pseudomonas aeruginosa, UniProt P54292); assay: cell-based; settings: for Relative RhIR Activity (%) Agonism 100 / Relative RhIR Activity (%) Agonism 1000: Table 3; for Relative RhIR Activity (%) Agonism 1000: 1000 (μM); for remaining activity at 10 µM: read-out: Relative RhIR Activity (%) Antagonism 10, Table 3; for activity at 100 µM: read-out: Relative RhlR activity Agonism, Table 2; for Relative RhIR activity (%) Agonism / Relative RhIR activity (%) Antagonism: Table 4, concentration not given
T1 construct: expressed in transfected cells; host or cells: E. coli sdiA variant co-transformed with pJN105R and pSC11 (RhlA::lacZ)
T1 sequence (P54292 whole entry): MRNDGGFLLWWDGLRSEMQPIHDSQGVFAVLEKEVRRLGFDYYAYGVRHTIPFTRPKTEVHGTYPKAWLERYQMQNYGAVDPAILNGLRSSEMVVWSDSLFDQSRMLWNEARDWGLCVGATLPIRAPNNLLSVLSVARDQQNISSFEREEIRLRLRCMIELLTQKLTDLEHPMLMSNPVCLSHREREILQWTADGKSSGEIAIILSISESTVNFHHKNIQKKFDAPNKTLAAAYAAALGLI
Procedure: Escherichia coli (E. coli) DH5a includes LuxR homolog SdiA detecting endogenous AHL synthesized by other microbial species, particularly, BHL.
For RhlR reporter strain analysis, the present invention used pJN105R (RhlR expression plasmid), anspSC11 (RhlA::lacZ fusion plasmid) and an sdiA variant co-transformed with the two plasmids. 1% of an overnight-cultured reporter strain (OD 595 nm=1.0) supplemented with 10 μg/mL gentamicin and 50 μg/mL ampicillin was cultured in a Luria-Bertani (LB) medium (Difco, Detroit, Mich., USA) with a positive control or a compound (0-1000 μM) and BHL (0-10 μM) (Sigma-Aldrich) at 37° C. for 2 hours. 0.4% arabinose (Sigma-Aldrich) was reacted with the resulting product at 37° C. for 1.5 hours. β-galactosidase activity was evaluated using a Tropix plus kit (Applied Biosystems, CA, USA), and OD 595 nm and luminescence were measured using a VICTOR x5 multimode plate reader (PerkinElmer, Waltham, Mass., USA). Relative RhlR activity was quantified by measuring luminescence at OD 595 nm. In addition, for LasR reporter strain analysis, the present invention used pJN105L (LasR expression plasmid) and pSC11 (lasI::lacZ fusion plasmid), E. coli DH5a co-transformed with the two plasmids, and OdDHL (Sigma-Aldrich).

P. aeruginosa = assay: Rhamnolipid production assay; assay type: cell-based, Pseudomonas aeruginosa; settings: for activity at 100 µM / activity at 10 µM: Pseudomonas aeruginosa, 24 h, Table 3; for activity at 100 µM: read-out: Relative biological activity (%) Rhamnolipid production 100; for Relative biological activity (%) Rhamnolipid production: Table 4, concentration not given; for activity at 10 µM: read-out: Relative biological activity (%) Rhamnolipid production 10
Procedure: P. aeruginosa (OD 595 nm=1.0) cultured overnight was inoculated in an AB medium (1:100) with a positive control or compound (0100 μM), and incubated using a shaking culture for 24 hours at 37° C. The cell culture was centrifuged for 5 minutes at 4° C. and 12,000 g. Rhamnolipids were extracted twice by mixing 200 μL of a supernatant and 400 μL of 100% diethyl ether (JUNSEI, Tokyo, Japan). The supernatant was transferred to a new tube and evaporated. A dried sample was eluted with 20 μL of deionized water, and reacted with 180 μL of an Orcinal solution (0.19% Orcinal (Sigma-Aldrich) in 53% H2SO4). The reaction mixture was heated for 30 minutes at 80° C., and cooled for 15 minutes at room temperature. The amount of rhamnolipids was measured at OD 421 nm, and normalized in the cell culture solution at OD 595 nm using a multimode plate reader.

Pseudomonas aeruginosa [1] = assay: Static biofilm formation assay (crystal violet); assay type: cell-based; settings: for activity at 10 µM / activity at 100 µM: Pseudomonas aeruginosa, 24 h, Table 3; for activity at 10 µM / activity at 100 µM / biofilm formation compared with a control (in words): static; for activity at 10 µM: read-out: Relative biological activity (%) Biofilm formation 10; for activity at 100 µM: read-out: Relative biological activity (%) Biofilm formation 100; for Relative biological activity (%) Biofilm formation: Table 4, concentration not given; for biofilm formation compared with a control (in words): 100 μM
Procedure: (§1) Pseudomonas aeruginosa (P. aeruginosa) (OD 595 nm=1.0) was cultured overnight, and diluted in an AB medium (1:20; 300 mM NaCl, 50 mM MgSO4, 0.2% vitamin-free casamino acids, 10 mM potassium phosphate, 1 mM L-arginine, and 1% glucose, pH 7.5) together with a positive control or compound (0100 μM) in a borosilicate bottle. The resulting mixture was incubated without shaking at 37° C. for 24 hours, and to measure growth inhibition activity. OD 595 nm of the suspended culture was measured using a multimode plate reader. Biofilm cells attached to the bottle were washed twice with phosphate-buffered saline (PBS; 137 mM NaCl, 2.7 mM KCl, 10 mM Na2HPO4, and 2 mM KH2PO4, pH 7.2). Afterward, the remaining biofilm cells were stained with 0.1% crystal violet for 10 minutes, and to remove the unbound crystal violet, washed with deionized water. The crystal violet […] to the biofilm cells was eluted with 100% ethanol, and the OD of the eluted ethanol sample was measured at 545 nm using a multimode plate reader.

Pseudomonas aeruginosa [2] = assay: Bacterial growth under static condition (OD 595 nm of suspended culture); assay type: cell-based; settings: for activity at 10 µM / activity at 100 µM: Pseudomonas aeruginosa, 24 h, Table 3; for activity at 10 µM: read-out: Relative biological activity (%) Bacterial growth 10; for activity at 100 µM: read-out: Relative biological activity (%) Bacterial growth 100; for Relative biological activity (%) Bacterial growth: Table 4, concentration not given; for effect on cell growth (in words): 100 PM [sic] (100 μM)
Procedure: as §1

[3] = read-out: Relative RhIR Activity (%) Antagonism 100, Table 3, 100 (μM)
[4] = footnotes not given, matches the 100 column of Table 3
[5] = read-out: Relative RhlR activity Antagonism, Table 2, footnotes not given, 100 μM per Table 3, lower = stronger antagonism
[6] = Table 2, footnotes not given, 100 μM per Table 3, lower = stronger antagonism

| SMILES | Relative RhIR Activity (%) Agonism 100 (RhlR; 100 (μM)) | Relative RhIR Activity (%) Agonism 1000 (RhlR) | remaining activity at 10 µM (RhlR) [%] | remaining activity at 100 µM (RhlR; [3]) [%] | activity at 100 µM (RhlR; [4]) [%] | remaining activity at 100 µM (RhlR; [5]) [%] | activity at 100 µM (P. aeruginosa) [%] | activity at 10 µM (Pseudomonas aeruginosa [1]) [%] | activity at 100 µM (Pseudomonas aeruginosa [1]) [%] | activity at 10 µM (Pseudomonas aeruginosa [2]) [%] | activity at 100 µM (Pseudomonas aeruginosa [2]) [%] | Relative RhlR activity Antagonism (RhlR; [6]) | activity at 10 µM (P. aeruginosa) [%] | other results |
| --- | --- | --- | --- | --- | --- | --- | --- | --- | --- | --- | --- | --- | --- | --- |
| CCCC(O)C#Cc1ccc(F)c(F)c1 (racemic) [Compound 33a, 1-(3,4-Difluorophenyl)hex-1-yn-3-ol] | 3** % | 5** % | 45 | 32 | 3 | 32 | 49 | 73 | 60 | 100 | 104 | – | – | – |
| CCCC(O)CC(=O)/C=C/c1ccc(OC)cc1 (stereo not drawn) [Compound 11f, (E)-5-Hydroxy-1-(4-methoxyphenyl)oct-1-en-3-one] | – | – | – | – | 1 | 55 | – | – | – | – | – | 55** % | – | Relative RhIR activity (%) Agonism (RhlR): 1** %; Relative RhIR activity (%) Antagonism (RhlR): 55** %; Relative biological activity (%) Rhamnolipid production (P. aeruginosa): 88%; Relative biological activity (%) Biofilm formation (Pseudomonas aeruginosa [1]): 75* %; Relative biological activity (%) Bacterial growth (Pseudomonas aeruginosa [2]): 102% |
| CCCCC[C@@H](O)C#Cc1ccc(O)c(OC)c1 [Compound 23b, (R)-4-(3-Hydroxyoct-1-yn-1-yl)-2-methoxyphenol] | – | – | – | – | 3 | 27 | – | – | – | – | – | 27** % | – | Relative RhIR activity (%) Agonism (RhlR): 3** %; Relative RhIR activity (%) Antagonism (RhlR): 27** %; Relative biological activity (%) Rhamnolipid production (P. aeruginosa): 77* %; Relative biological activity (%) Biofilm formation (Pseudomonas aeruginosa [1]): 79* %; Relative biological activity (%) Bacterial growth (Pseudomonas aeruginosa [2]): 100% |
| CCCCCC(=O)/C=C/c1ccc(F)c(F)c1 [Compound 13a, (E)-1-(3,4-Difluorophenyl)oct-1-en-3-one] | 4** % | 3** % | 53 | 51 | 4 | 51 | 62 | 80 | 61 | 103 | 103 | – | 64 | biofilm formation compared with a control (in words) (Pseudomonas aeruginosa [1]): significantly inhibited |
| CCCCCCCCCC(O)CC(=O)CCc1ccc(O)c(OC)c1 (stereo not drawn) [Compound 8, 5-Hydroxy-1-(4-hydroxy-3-methoxyphenyl)tetradecan-3-one] | – | – | – | – | 2 | 36 | – | – | – | – | – | – | – | Relative RhIR activity (%) Agonism (RhlR): 2** %; Relative RhIR activity (%) Antagonism (RhlR): 36** %; Relative biological activity (%) Rhamnolipid production (P. aeruginosa): 60* %; Relative biological activity (%) Biofilm formation (Pseudomonas aeruginosa [1]): 80** %; Relative biological activity (%) Bacterial growth (Pseudomonas aeruginosa [2]): 80** % |
| CCCCC(=O)C#Cc1ccc(F)c(F)c1 [Compound 31, 1-(3,4-Difluorophenyl)hept-1-yn-3-one] | 4** % | 6** % | 29 | 16 | 4 | 16 | 49 | 75 | 55 | 100 | 89 | – | 59 | biofilm formation compared with a control (in words) (Pseudomonas aeruginosa [1]): significantly inhibited; effect on cell growth (in words) (Pseudomonas aeruginosa [2]): slightly inhibited |
| CCCC(O)CC(=O)/C=C/c1cccc(OC)c1 (stereo not drawn) [Compound 11c, (E)-5-Hydroxy-1-(3-methoxyphenyl)oct-1-en-3-one] | 2** % | 4** % | 89 | 94 | 2 | 94 | 83 | 88 | 73 | 96 | 95 | – | 91 | Relative RhIR activity (%) Agonism (RhlR): 2** %; Relative biological activity (%) Rhamnolipid production (P. aeruginosa): 95%; Relative biological activity (%) Biofilm formation (Pseudomonas aeruginosa [1]): 82* %; Relative biological activity (%) Bacterial growth (Pseudomonas aeruginosa [2]): 101% |
| CCCC(O)CC(=O)/C=C/c1ccc(F)c(F)c1 (stereo not drawn) [Compound 11o, (E)-1-(3,4-Difluorophenyl)-5-hydroxyoct-1-en-3-one] | 2** % | 5** % | 60 | 20 | 2 | 20 | 50 | 72 | 53 | 101 | 105 | 20** % | 63 | Relative RhlR activity Agonism (RhlR; Table 2, footnotes not given, matches the 100 column of Table 3): 2** %; biofilm formation compared with a control (in words) (Pseudomonas aeruginosa [1]): significantly inhibited |
| CCCCCC(=O)C#Cc1ccc(F)c(F)c1 [Compound 32, 1-(3,4-Difluorophenyl)oct-1-yn-3-one] | 3** % | 5** % | 39 | 17 | 3 | 17 | 58 | 71 | 56 | 100 | 88 | – | 60 | biofilm formation compared with a control (in words) (Pseudomonas aeruginosa [1]): significantly inhibited; effect on cell growth (in words) (Pseudomonas aeruginosa [2]): slightly inhibited |
| CCCC(O)CC(=O)/C=C/c1ccc(O)c(O)c1 (stereo not drawn) [Compound 11k, (E)-1-(3,4-Dihydroxyphenyl)-5-hydroxyoct-1-en-3-one] | 3** % | 5** % | 60 | 43 | 3 | 43 | 50 | 84 | 72 | 99 | 104 | – | 56 | – |
| CCCCCC(=O)CCc1ccc(O)c(OC)c1 [Compound 14b, 1-(4-Hydroxy-3-methoxyphenyl)octan-3-one] | – | – | – | – | 2 | 49 | – | – | – | – | – | 49** % | – | – |
| CCCC(O)CC(=O)/C=C/c1ccccc1C (stereo not drawn) [Compound 11i, (E)-5-Hydroxy-1-(o-tolyl)oct-1-en-3-one] | – | – | – | – | 2 | 65 | – | – | – | – | – | 65** % | – | – |
| CCCCC(O)C#Cc1ccc(F)c(F)c1 (racemic) [Compound 34a, 1-(3,4-Difluorophenyl)hept-1-yn-3-ol] | – | – | – | – | 4 | 71 | – | – | – | – | – | – | – | – |
| CCCCCC(O)/C=C\c1ccc(O)c(OC)c1 (stereo not drawn) [Compound 25, (Z)-4-(3-Hydroxyoct-1-en-1-yl)-2-methoxyphenol] | – | – | – | – | 3 | 79 | – | – | – | – | – | 79** % | – | – |
